In patent publication US20090099351A1, “NYLON POLYRIBONUCLEOSIDES” (New York University, priority 2007, published 2009):

Test system: Phosphodiesterase II (calf spleen phosphodiesterase, CSP)
Assay: Phosphodiesterase II (CSP) controlled exonuclease digestion monitored by MALDI-TOF MS
Assay type: in vitro ADME
Conditions: 37° C.; for time for CSP digestion to reach the modified nucleotides: 5′-3′ exonuclease; for degradation of the remaining modified fragment by CSP: after 4 h, fragment starting at modified nucleotides
Experimental: Phosphodiesterase II controlled digestion for ODNs sequencing. The controlled digestion procedure followed slight modification of the reported protocol (Chou et al., 2000). ODN ([…] in 5 μL water) was mixed with phosphodiesterase II (calf spleen phosphodiesterase, CSP) solution (5 milliunits in 5 μL water) and ammonium citrate water solution (1 μL, 50 g/L). After vortex mixing and centrifuge, the mixture was incubated at 37° C. Aliquots (1 μL) were removed after 0.5, 2, 4, 9, 15, 20, 30, 40, 60, 240 min and quickly mixed with trihydroxyacetophenone (THAP, as MALDI-TOF matrix) solution (1 μL, 30 mg in 1 mL methanol) before being placed in dry ice to quench the reaction. All digestion aliquots were spotted on a target and analyzed by MALDI-TOF MS.
To locate the modified regions of nylon nucleic acid, controlled exonuclease digestion was performed on the template-synthesized nylon nucleic acid 3b and 8b with DNA 1 as a control, and monitored as a function of time. Phosphodiesterase II (calf spleen phosphodiesterase, CSP) served as the exonuclease, cleaving from the 5′-terminus. […] In 2 min, the digestion of 3b reached modified nucleotides UnUc. It took 4 min for the digestion of 8b to move to the modified region. […] It has been reported that CSP is inhibited by sugar-modified nucleotides (Pieles et al., 1993) and not by base-modified nucleotides, so these CSP digestion results are consistent with the 2′-ribose modification present in nylon nucleic acids. Furthermore, the sequence information about modified nucleotides from the 5′-end within nylon nucleic acids were also verified.

Substance	DNA fragments remaining after CSP digestion (in 1 h)	time for CSP digestion to reach the modified nucleotides [min]	degradation of the remaining modified fragment by CSP
5′-GCATAGTTTTTTGTCTAC (DNA, backbone and methylation of C not given here) [DNA 1, reference compound]	no DNA fragments longer than trimer were detected		
5′-GCATAGTTUnUcTTGTCTAC [3b]		2	no degradation was detected
5′-GCATAGUcUnnUccUnnUccUnGTCTAC [8b]		4	no degradation was detected
